Results published in PMC8039949, “A novel small-molecule PROTAC selectively promotes tau clearance to improve cognitive functions in Alzheimer-like models” (Theranostics, 2021).
Read-outs that look alike come from different tables or passages of the source.

Legend:
[1] = Pharmacokinetics study, plasma and brain concentration by LC-MS/MS; assay type: in vivo; details: male, mouse, sc, C57BL/6 mice, subcutaneous 3 mg/kg
Procedure: Male C57BL/6 mice (age of 6-8 weeks with bodyweight 21-23 g; N = 24) were purchased from JH Laboratory Animal Co. LTD. Subcutaneous injection dosing solution was prepared by diluting C004019 stock solution in 20% HP-β-CD in saline. The animals were administrated with C004019 at a dose of 3 mg/kg (10 mL/kg) via subcutaneous injection (N = 3 per timepoint), and then were anaesthetized via isoflurane at the designated time points, followed by collection of approximately 110 µL of blood sample into EDTA-2K tubes via retro-orbital puncture or cardiac puncture for terminal bleeding. The brain samples were collected at the designated time points after blood collection. All the samples were first maintained in wet ice and then the blood samples were centrifuged (2000 g, 4 °C, 5 min) to obtain plasma within 15 minutes post sampling. Afterwards, all the plasma samples and brain samples were stored at approximately -70 °C until analysis. The concentration of C004019 in plasma and brain was determined using liquid chromatograph mass spectrometry/mass spectrometry (LC-MS/MS) with a UPLC/MS-MS-015 (QTRAP 5500).

amyloid-β plaque = test: Congo red staining of amyloid-β plaque in 3xTg-AD mice; assay type: in vivo, mouse; details: 9.5 m-old 3xTg-AD mice; subcutaneous 3 mg/kg every 6 days, 5 times
tau [2] = biological target: T1, tau (Mus musculus, UniProt P10637); test: Intragastrical gavage in wild-type mice, brain tau by Western blotting; assay type: in vivo; details: 4 m-old wild-type mice; intragastrical gavage 20 mg/kg; 48 h
T1 sequence (P10637 114-430 isoform P10637-2 limits assumed): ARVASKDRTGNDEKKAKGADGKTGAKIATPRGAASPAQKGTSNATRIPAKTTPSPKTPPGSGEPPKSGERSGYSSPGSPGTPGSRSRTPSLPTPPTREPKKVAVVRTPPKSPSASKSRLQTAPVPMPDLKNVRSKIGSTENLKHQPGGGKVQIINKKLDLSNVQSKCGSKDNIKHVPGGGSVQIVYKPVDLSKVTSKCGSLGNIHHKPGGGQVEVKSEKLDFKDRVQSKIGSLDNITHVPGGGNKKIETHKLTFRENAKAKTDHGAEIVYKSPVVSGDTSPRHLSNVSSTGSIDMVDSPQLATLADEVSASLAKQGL
Procedure: (§1) The cells or hippocampal/cortex tissues were homogenized for ~ 30 min on ice in buffer [50 mM Tris·HCl pH 7.4-7.5, 100 mM NaCl, 1% (vol/vol) Triton X-100, 5 mM EDTA, 1:100 PMSF, 1:1,000 protease inhibitor cocktail containing 4-(2-Aminoethyl)-benzenesulfonyl fluoride hydrochloride, aprotinin, bestatin, leupeptin, E-64, and pepstatin A stored at 4 °C], and then centrifuged at 12,000 × g at 4 °C for 20 min. The supernatant was collected and the protein levels were analyzed using bicinchoninic acid (BCA, KF016, Sigma-Aldrich) by following the manufacturer's instruction (served as soluble protein). The pellet was further incubated with 8% (wt/vol) SDS buffer at 4 °C and then treated by ultrasonic wave to reach a complete resuspension. The suspension was spun (18,000 × g, 4 °C for 20 min) and the supernatant collected (served as insoluble fraction). The supernatant of different faction was respectively mixed with loading buffer (3:1, vol/vol) containing 200 mM Tris-HCl, pH 6.8, 8% SDS, 40% glycerol, and boiled for 10 min. For Western blotting, the proteins were separated by 10% SDS-polyacrylamide gel via electrophoresis for about 2 h and transferred to nitrocellulose membranes (0.45 nm) for 1 h. […] Immunoreactive bands were quantitatively analyzed by Image J2x software.

mRNA level of tau = test: Tau mRNA level by q-PCR in HEK293-hTau cells; assay type: cell-based, human; details: 20 μM for 24 h
Procedure: Total RNA was isolated by using Trizol™ kit (Invitrogen, Carlsbad, CA, USA) and the reverse transcription reagent kit (RR037, Takara) was used to obtain cDNA. RT-PCR was performed using a StepOnePlus Real-Time PCR Detection System (AB Applied Biosystems, 272001262, Cossell Biotechnology). The PCR system contains 2 μL forward and reverse primers, 10 μL SYBR Green PCR master mixes, 1 μL cDNA and 7 μL diethylpyrocarbonate (DEPC H2O). The primer of MAPT-forward was CAGCTCCGGCACCAACAG and the MAPT-reverse was […]. The primer of β-actin-forward was […] and β-actin-reverse was […].

tau with Vhl (E3 ligase) = biological target: T2, tau with Vhl (E3 ligase) (Homo sapiens, UniProt P10636+P40337); test: Co-immunoprecipitation of tau with Vhl and tau ubiquitination in HEK293-hTau cells; assay type: cell-based; details: 20 μM for 6 h
T2 construct: expressed in transfected cells; host or cells: HEK293-hTau (tau stably expressed; VHL endogenous)
T2 sequence (P10636 1-441 isoform P10636-8): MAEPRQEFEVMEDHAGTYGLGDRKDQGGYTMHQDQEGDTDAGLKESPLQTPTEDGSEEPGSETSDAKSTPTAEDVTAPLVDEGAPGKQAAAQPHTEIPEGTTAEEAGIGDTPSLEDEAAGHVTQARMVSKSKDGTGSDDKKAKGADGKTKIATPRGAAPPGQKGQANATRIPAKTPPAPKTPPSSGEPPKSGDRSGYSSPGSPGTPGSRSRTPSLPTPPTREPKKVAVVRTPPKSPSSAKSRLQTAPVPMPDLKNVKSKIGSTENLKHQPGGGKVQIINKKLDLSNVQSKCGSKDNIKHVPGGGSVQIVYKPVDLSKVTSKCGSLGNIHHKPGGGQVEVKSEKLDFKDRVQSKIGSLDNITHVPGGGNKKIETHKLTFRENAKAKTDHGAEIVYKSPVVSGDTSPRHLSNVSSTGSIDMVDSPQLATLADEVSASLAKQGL
T2 sequence (P40337 whole entry): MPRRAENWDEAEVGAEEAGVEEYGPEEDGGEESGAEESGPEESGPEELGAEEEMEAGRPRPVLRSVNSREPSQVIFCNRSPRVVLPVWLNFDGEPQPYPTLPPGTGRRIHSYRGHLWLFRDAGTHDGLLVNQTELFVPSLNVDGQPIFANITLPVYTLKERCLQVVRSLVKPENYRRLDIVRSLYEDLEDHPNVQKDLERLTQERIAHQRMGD
T2 sequence (Q15369 whole entry partner): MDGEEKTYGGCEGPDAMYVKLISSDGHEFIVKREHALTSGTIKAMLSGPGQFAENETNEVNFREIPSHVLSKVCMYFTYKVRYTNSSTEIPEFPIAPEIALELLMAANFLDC
T2 sequence (Q15370 whole entry partner): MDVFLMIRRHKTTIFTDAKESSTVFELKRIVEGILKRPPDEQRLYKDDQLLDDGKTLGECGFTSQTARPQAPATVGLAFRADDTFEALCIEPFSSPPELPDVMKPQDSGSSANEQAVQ
T2 sequence (Q13617 whole entry partner): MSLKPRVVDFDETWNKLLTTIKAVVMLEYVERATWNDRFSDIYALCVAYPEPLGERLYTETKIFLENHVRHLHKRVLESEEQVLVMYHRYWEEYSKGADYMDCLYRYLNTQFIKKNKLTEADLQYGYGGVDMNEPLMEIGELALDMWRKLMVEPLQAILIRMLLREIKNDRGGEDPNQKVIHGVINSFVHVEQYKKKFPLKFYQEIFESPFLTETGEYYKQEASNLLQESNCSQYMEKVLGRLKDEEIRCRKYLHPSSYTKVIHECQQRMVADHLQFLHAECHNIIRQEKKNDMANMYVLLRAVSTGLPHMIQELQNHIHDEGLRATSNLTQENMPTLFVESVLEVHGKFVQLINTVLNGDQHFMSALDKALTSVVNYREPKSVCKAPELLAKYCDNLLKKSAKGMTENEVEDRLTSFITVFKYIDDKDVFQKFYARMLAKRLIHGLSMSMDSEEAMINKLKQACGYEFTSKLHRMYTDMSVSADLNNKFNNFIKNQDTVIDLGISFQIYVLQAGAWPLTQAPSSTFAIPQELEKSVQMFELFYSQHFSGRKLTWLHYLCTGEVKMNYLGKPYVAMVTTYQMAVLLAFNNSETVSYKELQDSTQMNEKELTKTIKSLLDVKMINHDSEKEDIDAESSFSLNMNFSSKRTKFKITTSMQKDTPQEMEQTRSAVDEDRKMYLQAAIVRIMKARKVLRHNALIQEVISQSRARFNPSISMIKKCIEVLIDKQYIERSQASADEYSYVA
T2 sequence (P62877 whole entry partner): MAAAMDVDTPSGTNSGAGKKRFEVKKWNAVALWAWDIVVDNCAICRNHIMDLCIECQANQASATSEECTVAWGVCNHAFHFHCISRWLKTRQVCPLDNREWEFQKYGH
Procedure: Cell lysates were centrifuged at 12,000 g for 20 min at 4 °C and the supernatant were incubated with protein G agarose beads (Millipore, 16-266), pre-washed with cold PBS for 1 h at 4 °C to remove non-specific proteins. After centrifuged (14,000 g) at 4 °C for 15 min, the supernatant was collected and protein concentration was measured by BCA assay. The supernatant was sequentially incubated with primary antibodies (2 μg/100 μg) overnight at 4 °C with rotating in the first day and protein G agarose beads (20 μL/100 μL) the next day. After spin (6,000 g) for 2 min at 4 °C, the pellets were collected, washed with precooled washing buffer for 3 times, resuspended in buffer (50 mM Tris-HCl, pH 6.8, 2% SDS, 10% glycerol), boiled for 10 min, and analyzed by Western blotting.

tau [3] = biological target: T1, tau; test: Single-dose subcutaneous administration in wild-type mice, brain tau by Western blotting; assay type: in vivo
Procedure: (§2) For brain surgery and stereotaxic cerebroventricular drug delivery, the mice were placed in a stereotaxic apparatus and anesthetized with 2% isoflurane (RWD Life Science, R510-22) through a nose cone (300-500 mL/min, RWD Life Science, China, R500). The scalp was incised along the midline between the ears after the mice were sterilized with iodophors and 75% (vol/vol) alcohol. The holes were drilled stereotaxically in the skull at a cerebroventricular location (posterior 0.22 mm, lateral 0.9 mm, and ventral 2.3 mm relative to bregma). Using a microinjection system (Shenzhen RWD Life Technology Co., Ltd; RWD 69100), C004019 (5 μL, 200 μM) was infused at a rate of 0.5 μL/min. The needle was kept in place for 10 min before withdrawal. After the skin was sutured, the mice were placed on a heater for analepsia. For subcutaneous injection, C004019 was diluted with 20% HP-β-CD and injected under the skin on the back neck to reach a final concentration of 3 mg/kg (low dose) or 15 mg/kg (high dose).
The cells or hippocampal/cortex tissues were homogenized for ~ 30 min on ice in buffer [50 mM Tris·HCl pH 7.4-7.5, 100 mM NaCl, 1% (vol/vol) Triton X-100, 5 mM EDTA, 1:100 PMSF, 1:1,000 protease inhibitor cocktail containing 4-(2-Aminoethyl)-benzenesulfonyl fluoride hydrochloride, aprotinin, bestatin, leupeptin, E-64, and pepstatin A stored at 4 °C], and then centrifuged at 12,000 × g at 4 °C for 20 min. The supernatant was collected and the protein levels were analyzed using bicinchoninic acid (BCA, KF016, Sigma-Aldrich) by following the manufacturer's instruction (served as soluble protein). The pellet was further incubated with 8% (wt/vol) SDS buffer at 4 °C and then treated by ultrasonic wave to reach a complete resuspension. The suspension was spun (18,000 × g, 4 °C for 20 min) and the supernatant collected (served as insoluble fraction). The supernatant of different faction was respectively mixed with loading buffer (3:1, vol/vol) containing 200 mM Tris-HCl, pH 6.8, 8% SDS, 40% glycerol, and boiled for 10 min. For Western blotting, the proteins were separated by 10% SDS-polyacrylamide gel via electrophoresis for about 2 h and transferred to nitrocellulose membranes ([…]) for 1 h. The membranes were blocked with 5% (wt/vol) BSA dissolved in PBS for 1 h and incubated with primary antibodies overnight at 4 °C in cold room. Membranes were then incubated with a secondary antibody for 1 h at room temperature and visualized using the ECL Imaging System (610007-8Q, Clinx Science Instruments Co., Ltd). Immunoreactive bands were quantitatively analyzed by Image J2x software.

tau [4] = biological target: T1, tau; test: Intracerebroventricular infusion in wild-type mice, brain tau by Western blotting; assay type: in vivo; details: 4 m-old wild-type mice, intracerebroventricular 5 μL, 200 μM
Procedure: as §2
as §1, with “min.” for “min. For Western blotting, the proteins were separated by 10% SDS-polyacrylamide gel via electrophoresis for about 2 h and transferred to nitrocellulose membranes (0.45 nm) for 1 h.”

Question: Which brain-to-plasma Cmax ratio ([1]; brain/plasma, read-out: ratio of brain tissue maximal concentration to the plasma maximal concentration (Kpuu value)) does the source give for `CC(=O)N1CCCN(c2nc(NCCc3cccs3)nc(N(C)CC(=O)NCCOCCOCCOCC(=O)N[C@H](C(=O)N3C[C@H](O)C[C@H]3C(=O)NCc3ccc(-c4scnc4C)cc3)C(C)(C)C)n2)CC1` [C004019] here?
Answer: Its brain-to-plasma Cmax ratio is 0.00866.

Question: And the AUC(0-inf) ([1]; brain, read-out: AUCINF in brain)?
Answer: Its AUC(0-inf) is 12.6 ng·h/mL.

Question: And the AUC(0-t) ([1]; brain, read-out: AUClast in brain)?
Answer: Its AUC(0-t) is 8.42 ng·h/mL.

Question: And the Cmax ([1]; brain, read-out: Cmax in brain (maximal brain concentration))?
Answer: Its Cmax is 10.8 ng/mL.

Question: What about the MRT inf ([1]; brain, read-out: MRTINF in brain) of the same compound?
Answer: Its MRT inf is 1.8 h.

Question: What about the half-life ([1]; brain, read-out: T1/2 in brain (converted)) of the same compound?
Answer: Its half-life is 1.29 h.

Question: What about the Tmax ([1]; brain, read-out: Tmax in brain) of the same compound?
Answer: Its Tmax is 0.167 h.

Question: What about the AUC(0-inf) ([1]; plasma, read-out: AUCINF in plasma) of the same compound?
Answer: Its AUC(0-inf) is 1800 ng·h/mL.

Question: What about the AUC(0-t) ([1]; plasma, read-out: AUClast in plasma) of the same compound?
Answer: Its AUC(0-t) is 1190 ng·h/mL.

Question: What about the Cmax ([1]; plasma, read-out: Cmax in plasma) of the same compound?
Answer: The Cmax was 1250 ng/mL.

Question: And the MRT inf ([1]; plasma, read-out: MRTINF in plasma)?
Answer: The MRT inf was 1.87 h.

Question: And the half-life ([1]; plasma, read-out: T1/2 in plasma (converted))?
Answer: The half-life was 1.33 h.

Question: And the Tmax ([1]; plasma, read-out: Tmax in plasma)?
Answer: Its Tmax is 0.167 h.

Question: What about the “amyloid-β plaque (Congo red staining)” value (amyloid-β plaque) of the same compound?
Answer: The value was “No significant effects on amyloid-β plaque”.

Question: What about the “tau level in hippocampus and cortex” value (tau [2]) of the same compound?
Answer: Its value is “no significant tau reduction was detected”.

Question: And the “mRNA level of tau” value (mRNA level of tau)?
Answer: Its value is “did not significantly change the mRNA level of tau”.

Question: What about the “ubiquitination level of tau” value (tau with Vhl (E3 ligase)) of the same compound?
Answer: Its value is “significantly increased the ubiquitination level of tau”.

Question: What about the “duration of tau reduction in the brain” value (tau [3]; 4 m-old wild-type mice, single-dose subcutaneous 3 mg/kg) of the same compound?
Answer: The value was “sustained tau reduction till 8 days”.

Question: What about the “tau level in hippocampus and cortex” value (tau [3]; 4 m-old wild-type mice, subcutaneous 3 mg/kg, 24 h, compared with 15 mg/kg) of the same compound?
Answer: The value was “much more significant tau reduction than that of high dose”.

Question: What about the “tau level in hippocampus and cortex” value (tau [3]; 4 m-old wild-type mice, subcutaneous 15 mg/kg, 24 h and 48 h) of the same compound?
Answer: The value was “Significant tau reduction”.

Question: What about the tau reduction (tau [3]; wild-type mice, 8 days after one treatment) of the same compound?
Answer: The tau reduction was 50%.

Question: What about the hippocampal tau level (tau [4]; 24 h) of the same compound?
Answer: The hippocampal tau level was “most remarkable hippocampal tau reduction”.

Question: And the “brain cortex tau level” value (tau [4]; 24 h and 48 h)?
Answer: The value was “significant reduction of tau was only detected at 48 h but not 24 h”.

Question: What about the hippocampal tau level (tau [4]; 48 h) of the same compound?
Answer: Its hippocampal tau level is “still very significant”.
